Source: patent US20240238235A1, “METHODS AND COMPOSITIONS FOR TREATING PULMONARY ALVEOLAR PROTEINOSIS RELATED TO MARS MUTATIONS” (INSTITUT NATIONAL DE LA SANTÉ ET DE LA RECHERCHE MÉDICALE, priority 2021, published 2024)
Where two headings read alike, the source gives them in different places.

What was measured:
[1] = system: peripheral monocytes; conditions: control = 100%
Description: Peripheral monocyte and phagocyte functions were assessed by quantifying ROS production. Whole blood collected from lithium heparinized tubes (500 μl) was incubated for 15 min at 37° C. with dihydrorhodamine 123[…] (Sigma-Aldrich). Samples were then treated for 1 h at 37° C. with GM-CSF (10 ng/ml; R&D Systems), followed by stimulation for 5 min with fMLF (10^-5M; Sigma-Aldrich). The reaction was stopped by adding 1 ml ice-cold lysis solution (BD Biosciences) and incubating for 5 min on ice. Samples were then washed with PBS (Sigma-Aldrich) and the pellets resuspended in 300 μl FacsFlow solution (BD Biosciences). Samples were analyzed by flow cytometry on a FACSCanto II (BD Biosciences). Phagocytes (neutrophils and monocytes) were selected on the FSC-SSC dot plot. Events (50,000) were recorded at a constant PMT voltage. Results are expressed as the index of stimulation (MIF DHE GM-CSF+fMLP/DHE GM-CSF alone).

[2] = system: patients with MAT I/III deficiency; conditions: large series of patients with MAT I/III deficiency; cited from earlier work
[3] = system: pulmonary alveolar proteinosis related to MARS mutations
Text: Eight patients started the treatment from the age of 11 to 24 years old. […] In the 7 seven remaining patients, treatment was started less than one year ago and will be assessed in the next months.

[4] = system: pulmonary alveolar proteinosis related to MARS mutations; conditions: P1, 3 and 4
Text: We compared the course of treated patients to that of patients reported by Enaud et al. 2 as well as seven patients diagnosed since this publication. Data collection and analysis for these patients were approved by the Institutional Review Board of the French Respiratory Society (CEPRO2013-019) and the CPP Île de France II (CPP2013-12-03 SC).
Several parameters were compared between treated patients and HC. We computed the difference between the values for each continuous variable at inclusion and at last follow-up for each treated patient, as well as between diagnosis and six months to one year from diagnosis for the HC. Differences were compared between groups using Mann-Whitney tests. For each categorical variable (i.e., weaning from oxygen and enteral nutrition), we compared the proportion of patients who were weaned from such support at the second assessment between groups using Fisher's exact test. A p-value<0.05 was considered statistically significant.

[5] = Description: The level of methioninemia in a healthy subject should be measured on an empty stomach and should be less than 45 μM. Typically, in the subject affected by MARS mutations, the level of methioninemia to reach efficacy should be in the range of 45-500 μM (>45 μM at residual dosage and <500 μM at peak dosage 1 hour after the dose has been taken). The level of methioninemia is measured with the following methods. […] For accurate quantification, stable isotope internal standards of the same structure for each metabolite (Eurisotop, Saint Aubin, France) are added to samples before protein precipitation. Internal standards are labeled on all carbons and nitrogen(s) with following exceptions: glutamine 2,3,3,4,4-D5, asparagine ^13C4, tryptophan Indole-D5, citrulline ^13CD4 and homocysteine 3,3,3′,3′,4,4,4′,4′-D8. Samples are first derivatized using the AccQ Tag™ Ultra (Waters Corporation, Milford, MA, USA) according to manufacturer recommendations. Amino acid separation is performed with an Acquity™ UPLC system using a CORTECS™ UPLC C18 column (1.6 μm, 2.1×150 mm) coupled to microTQS™ tandem mass spectrometer (Waters Corporation, Milford, MA, USA). The run time for quantification of all amino acids is 12 min.
The MetPAP study was registered at clinicaltrials.gov (NCT03887169). […] The secondary objectives were to determine the efficacy of such treatment.
The frequency of medication was based on the known half-life of the moleculel and the peak was determined by performing kinetic measurements on the patients during the first day of supplementation.

For `CSCC[C@H](N)C(=O)O` [methionine, L-methionine], the “stimulation index relative to control (GM-CSF priming of ROS production by peripheral monocytes)” value ([1]; P1, after three months of treatment (M3)) is given as 109%, the “stimulation index relative to control (GM-CSF priming of ROS production by peripheral monocytes)” value ([1]; P3, after three months of treatment (M3)) is given as 73% and the “mean plasma methionine values at which CNS abnormalities were observed” value [2] is given as greater than 800 µM. For the same compound, the clinical outcome ([3]; 1 patient, treatment started 2 years ago) was “improve clinical respiratory status (regression of dry cough and exercise dyspnoea), to improve lung function (gain in forced vital capacity and diffuse capacity of carbon monoxide), and to improve chest CT scan (regression of ground glass opacities, stabilization of the fibrosis)”, the clinical outcome ([3]; 2 patients treated between 1 and 2 years of age) was “stop whole lung lavages, to “clean” the chest CT scan from the alveolar consolidations and stop the progression of fibrotic lesions, to catch-up on weight and to normalize liver blood tests and inflammatory markers” and the clinical outcome ([3]; 4 additional patients treated from diagnosis (3 to 6 months)) was “stop whole lung lavages or even to avoid it, to normalize the chest CT scan after 3 months of treatment, to normalize the liver blood tests and inflammatory markers, to catch-up on weight, and to wean off the oxygen and nutritional support initially required”. The “change M0 to M6-M12 of blood neutrophils, CRP, albumin and GGT versus HC” value ([4]; p=0.011, 0.039, 0.006, 0.038) was “greater improvement”, the “patients weaned off oxygen at the second assessment” value ([4]; vs 1/15 HC, p=0.056) was 2/3 and the “patients weaned off enteral nutrition at the second assessment” value ([4]; vs none of 18 HC, p=0.014) was 2/3. The “methioninemia at T0 (residual)” value ([5]; P3, D21 of treatment) was 42 µM, the “time of peak plasma methionine after taking the medication” value ([5]; kinetic study in the patients) was 1 h and the “residual and peak plasma methionine values over 24-h periods, days and months” value ([5]; treatment every 6 h) was “reproducible residual and peak values”.
